Experimental data: patent US8586620B2, “Substituted indole compounds having NOS inhibitory activity” (NeurAxon, Inc., priority 2005, dated 2013)
Read-outs that look alike come from different tables or passages of the source.

Assays:
[1] = biological target: human neuronal constitutive NOS (nNOS) (Homo sapiens (Human), UniProt P29475); assay: Human nNOS enzyme assay, radiometric [3H]L-arginine to [3H]L-citrulline; conditions: for e/n: ratio eNOSh/nNOSh;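 on all read-outs here: recombinant human nNOS expressed in baculovirus-infected Sf9 cells, enzyme activity measured radiometrically as turnover of [3H]L-arginine into [3H]L-citrulline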
Procedure: (§1) In a radiometric method, NO synthase activity was determined by measuring the conversion of [^3H]L-arginine to [^3H]L-citrulline.
(§2) The total volume of the reaction mixture was 150 μL in every well. […] The reaction was stopped by adding 20 μL of ice-cold buffer containing 100 mM HEPES, 3 mM EGTA, 3 mM EDTA, pH=5.5. [^3H]L-citrulline was separated by DOWEX (ion-exchange resin DOWEX 50 W X 8-400, SIGMA) and the DOWEX was removed by spinning at 12,000 g for 10 min in the centrifuge. […] All assays were performed at least in duplicate. Standard deviations were 10% or less.

[2] = biological target: human inducible NOS (iNOS) (Homo sapiens (Human), UniProt P35228); assay: Human iNOS enzyme assay, radiometric; type: biochemical
From the text: Standard deviations were 10% or less.

[3] = biological target: human endothelial constitutive NOS (eNOS) (Homo sapiens (Human), UniProt P29474); assay: Human eNOS enzyme assay, radiometric;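 further: recombinant human eNOS expressed in baculovirus-infected Sf9 cells, activity read as [3H]L-arginine turned into [3H]L-citrulline, the product isolated on ion-exchange resin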
Procedure: as §1, §2

5-HT1B = 5-HT1B (Rattus norvegicus (Rat), UniProt P28564); assay: 5-HT1B binding assay (agonist radioligand), rat cerebral cortex
Procedure: 5-HT1D binding assays (agonist radioligand)were performed using bovine caudate membranes according to the methods of Heuring and Peroutka (J. Neurosci 1987, 7: 894-903). 5-HT1B (rat cerebral cortex) binding assays (agonist radioligand) were performed according to the method of Hoyer et. al. (Eur. J. Pharmacol. 1995, 118: 1-12). For the purpose of result analysis, the specific ligand binding to the receptors is defined as the difference between the total binding and the nonspecific binding as determined in the presence of an excess of unlabelled ligand. The results are expressed as a percent of control specific binding obtained in the presence of the test compounds. IC50 values (concentration causing a half-maximal inhibition of control specific binding) and Hill coefficients (nH) were determined by non-linear regression analysis of the competition curves using Hill equation curve fitting and the inhibition constants (Ki) were calculated from the Cheng Prusoff equation (Ki=IC50/(1+(L/KD)), where L=concentration of radioligand in the assay, and KD=affinity of the radioligand for the receptor).

[4] = read-out: nNOSh, Table I, human NOS, dihydrochloride or monohydrochloride salts
[5] = Table I, human NOS, dihydrochloride or monohydrochloride salts, read-out: iNOSh
[6] = read-out: eNOSh, Table I, human NOS, dihydrochloride or monohydrochloride salts
[7] = read-out: nNOSh, Table II, human NOS, dihydrochloride or monohydrochloride salts
[8] = read-out: eNOSh, Table II, human NOS, dihydrochloride or monohydrochloride salts

Sequence of 5-HT1B (P28564 whole entry): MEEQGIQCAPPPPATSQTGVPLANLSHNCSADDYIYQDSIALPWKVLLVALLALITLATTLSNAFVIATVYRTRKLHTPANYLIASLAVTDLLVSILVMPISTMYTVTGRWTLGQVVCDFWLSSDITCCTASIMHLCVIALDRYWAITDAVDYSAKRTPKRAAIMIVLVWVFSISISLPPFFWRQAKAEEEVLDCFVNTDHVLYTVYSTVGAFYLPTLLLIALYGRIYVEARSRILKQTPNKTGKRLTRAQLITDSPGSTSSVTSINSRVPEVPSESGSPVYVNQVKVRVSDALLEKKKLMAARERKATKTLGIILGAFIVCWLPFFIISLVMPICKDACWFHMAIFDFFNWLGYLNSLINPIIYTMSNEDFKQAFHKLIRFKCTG

## N=C(Nc1ccc2ccn(CCN3CCCCC3)c2c1)c1cccs1 [Compound 37]
[1]; read-out: Human nNOS, Table 2b
  IC50: 0.49 µM
[2]; Table 2b, read-out: Human iNOS
  IC50: 21 µM
[3]; read-out: Human eNOS, Table 2b
  IC50: 3.8 µM

## CN1CCC(c2c[nH]c3ccc(NC(=N)c4cccs4)cc23)CC1 [Compound 43, N-(3-(1-methylpiperidin-4-yl)-1H-indol-5-yl)thiophene-2-carboximidamide]
[1]; Table I
  e/n: 17
[1]; [4]
  IC50: 1.88 µM
[2]; [5]
  IC50: 58 µM
[3]; [6]
  IC50: 32.6 µM

## CN1CC=C(c2c[nH]c3ccc(NC(=N)c4ccco4)cc23)CC1 [Compound 46, N-(3-(1-methyl-1,2,3,6-tetrahydropyridin-4-yl)-1H-indol-5-yl)furan-2-carboximidamide]
[1]; Table I
  e/n: 31
[1]; [4]
  IC50: 1.78 µM
[2]; [5]
  IC50: 58 µM
[3]; [6]
  IC50: 54 µM

## CN1CCC(c2c[nH]c3ccc(NC(=N)c4ccco4)cc23)CC1 [Compound 47, N-(3-(1-methylpiperidin-4-yl)-1H-indol-5-yl)furan-2-carboximidamide]
[1]; [4]
  IC50: 2.24 µM
[2]; [5]
  IC50: 55 µM
[3]; [6]
  IC50: 97.4 µM

## CN1CC=C(c2c[nH]c3ccc(CNC(=N)c4cccs4)cc23)CC1 [Compound 51, N-((3-(1-methyl-1,2,3,6-tetrahydropyridin-4-yl)-1H-indol-5-yl)methyl)thiophene-2-carboximidamide]
[1]; Table I
  e/n: 42
[1]; [4]
  IC50: 1.19 µM
[2]; [5]
  IC50: 85 µM
[3]; [6]
  IC50: 49.7 µM

## CN(C)CCCc1c[nH]c2ccc(NC(=N)c3cccs3)cc12 [Compound 56, N-(3-(3-(dimethylamino)propyl)-1H-indol-5-yl)thiophene-2-carboximidamide]
[1]; [4]
  IC50: 0.41 µM
[2]; [5]
  IC50: 5.6 µM
[3]; [6]
  IC50: 15.1 µM

## CN1CCC[C@H]1Cc1c[nH]c2ccc(NC(=N)c3cccs3)cc12 [Compound 105, (S)-N-(3-((1-methylpyrrolidin-2-yl)methyl)-1H-indol-5-yl)thiophene-2-carboximidamide]
5-HT1B
  IC50: 0.29 µM
[1]; Table I
  e/n: 29
[1]; [4]
  IC50: 0.82 µM
[3]; [6]
  IC50: 23 µM

## CN1CCC(c2c[nH]c3ccc(NC(=N)c4cccs4)cc23)C1 (centres unmarked) [Compound 110, N-(3-(1-methylpyrrolidin-3-yl)-1H-indol-5-yl)thiophene-2-carboximidamide]
5-HT1B
  IC50: 0.49 µM
[1]; Table I
  e/n: 90
[1]; [4]
  IC50: 0.43 µM
[3]; [6]
  IC50: 39 µM

## CN1CCC(c2c[nH]c3ccc(NC(=N)c4ccco4)cc23)C1 (centres unmarked) [Compound 111, N-(3-(1-methylpyrrolidin-3-yl)-1H-indol-5-yl)furan-2-carboximidamide]
5-HT1B
  IC50: 1.1 µM
[1]; [4]
  IC50: 1.24 µM
[3]; [6]
  IC50: 33.8 µM

## N=C(Nc1ccc2ccn(CCc3ccccc3)c2c1)c1cccs1 [Compound 115]
[1]; Table II
  e/n: >8.3
[1]; read-out: nNOSh
  IC50: 12 µM
[3]; read-out: eNOSh
  IC50: > 100 µM

## CN(C)C1CCC(c2c[nH]c3ccc(NC(=N)c4cccs4)cc23)CC1 (centres unmarked) [Compound 116, N-(3-(4-(dimethylamino)cyclohexyl)-1H-indol-5-yl)thiophene-2-carboximidamide]
[1]; Table I
  e/n: 9.2
[3]; [6]
  IC50: 31.8 µM

## N=C(Nc1ccc2[nH]cc(C3CN4CCC3CC4)c2c1)c1cccs1 (centres unmarked) [Compound 126, N-(3-(quinuclidin-3-yl)-1H-indol-5-yl)thiophene-2-carboximidamide]
[1]; Table I
  e/n: 30.9
[1]; [4]
  IC50: 1.04 µM
[3]; [6]
  IC50: 32.1 µM

## N=C(Nc1ccc2[nH]cc(C3CN4CCC3CC4)c2c1)c1ccco1 (centres unmarked) [Compound 127, N-(3-(quinuclidin-3-yl)-1H-indol-5-yl)furan-2-carboximidamide]
[1]; Table I
  e/n: 25.3
[1]; [4]
  IC50: 2.6 µM
[3]; [6]
  IC50: 66 µM

## CN1CC=C(c2c[nH]c3ccc(NC(=N)c4cccs4)cc23)C(F)C1 (centres unmarked) [Compound 134, N-(3-(3-fluoro-1-methyl-1,2,3,6-tetrahydropyridin-4-yl)-1H-indol-5-yl)thiophene-2-carboximidamide]
[1]; Table I
  e/n: 51.4
[1]; [4]
  IC50: 2.78 µM
[3]; [6]
  IC50: 143 µM

## N=C(Nc1ccc2ccn(CCN3CCCCC3)c2c1)c1cccs1 [Compound 136]
[1]; Table II
  e/n: 7.8
[1]; [7]
  IC50: 0.49 µM
[3]; [8]
  IC50: 3.8 µM

## CN1CCC[C@@H]1CCn1ccc2ccc(NC(=N)c3cccs3)cc21 [Compound 138]
[1]; Table II
  e/n: 50
[1]; [7]
  IC50: 0.32 µM
[3]; [8]
  IC50: 16 µM

## CN1CCC[C@H]1CCn1ccc2ccc(NC(=N)c3cccs3)cc21 [Compound 139]
[1]; Table II
  e/n: 120
[1]; [7]
  IC50: 0.2 µM
[3]; [8]
  IC50: 24 µM

## CN1CCCC(n2ccc3ccc(NC(=N)c4cccs4)cc32)CC1 (centres unmarked) [Compound 156]
[1]; Table II
  e/n: 42.5
[1]; [7]
  IC50: 0.87 µM
[3]; [8]
  IC50: 37 µM

## CN(C)CCCn1ccc2ccc(NC(=N)c3cccs3)cc21 [Compound 157, N-(1-(3-(dimethylamino)propyl)-1H-indol-6-yl)thiophene-2-carboximidamide]
[1]; Table II
  e/n: 41.1
[1]; [7]
  IC50: 0.7 µM
[3]; [8]
  IC50: 28.3 µM

## CCN(CC)CCCn1ccc2ccc(NC(=N)c3cccs3)cc21 [Compound 158]
[1]; Table II
  e/n: 17.2
[1]; [7]
  IC50: 0.59 µM
[3]; [8]
  IC50: 10.2 µM

## CN(C)CCCn1ccc2ccc(NC(=N)c3cccs3)cc21 [Compound 160]
[1]; Table II
  e/n: 2.11
[1]; [7]
  IC50: 2.73 µM
[3]; [8]
  IC50: 5.77 µM

## CNCCCn1ccc2ccc(NC(=N)c3cccs3)cc21 [Compound 161]
[1]; Table II
  e/n: 5.57
[1]; [7]
  IC50: 1.78 µM
[3]; [8]
  IC50: 9.91 µM

## CN1CCCC1CCn1c(Cc2ccccc2)cc2ccc(NC(=N)c3cccs3)cc21 (centres unmarked) [Compound 162]
[1]; Table II
  e/n: 14.3
[1]; [7]
  IC50: 2.3 µM
[3]; [8]
  IC50: 33 µM

## N=C(Nc1ccc2ccn(CCCCn3ccnc3)c2c1)c1cccs1 [Compound 167]
[1]; Table II
  e/n: 3.74
[1]; [7]
  IC50: 1.22 µM
[3]; [8]
  IC50: 4.56 µM

## N=C(Nc1ccc2ccn(CCCCn3ccnc3)c2c1)c1cccs1 [Compound 168, N-(1-(4-(1H-imidazol-1-yl)butyl)-1H-indol-6-yl)thiophene-2-carboximidamide]
[1]; Table II
  e/n: 9.6
[1]; [7]
  IC50: 0.26 µM
[3]; [8]
  IC50: 2.53 µM

## N=C(Nc1ccc2[nH]cc(CCCN3CCOCC3)c2c1)c1cccs1 [Compound 181, N-(3-(3-morpholinopropyl)-1H-indol-5-yl)thiophene-2-carboximidamide]
[1]; Table I
  e/n: 9.9
[1]; [4]
  IC50: 2 µM
[2]; [5]
  IC50: 9.9 µM
[3]; [6]
  IC50: 31 µM

## N=C(Nc1ccc2ccn(CCCN3CCOCC3)c2c1)c1ccsc1 [Compound 182]
[1]; Table II
  e/n: 12.1
[1]; [7]
  IC50: 1.4 µM
[3]; [8]
  IC50: 17 µM

## N=C(Nc1ccc2ccn(CCCN3CCOCC3)c2c1)c1ccco1 [Compound 183]
[1]; Table II
  e/n: 14.2
[1]; [7]
  IC50: 2.4 µM
[3]; [8]
  IC50: 34 µM

## N=C(Nc1ccc2ccn(CCCN3CCOCC3)c2c1)c1ccoc1 [Compound 184]
[1]; Table II
  e/n: 19
[1]; [7]
  IC50: 1 µM
[3]; [8]
  IC50: 19 µM
